Reference: patent publication US20210115040A1, “OGA INHIBITOR COMPOUNDS” (Janssen Pharmaceutica NV, priority 2018, published 2021)

Experiments:
OGA = molecular target: T1, OGA (Homo sapiens, UniProt O60502); experiment: OGA cellular assay (ICC detection of O-GlcNAcylated proteins in HEK293 cells inducible for P301L mutant human Tau); assay type: cell-based; conditions: for EC50: read-out: Cellular hOGA, pEC50 (converted); for Cellular Emax (%) / Emax: maximum = Thiamet G 200 uM; for Emax: HEK293, HEK293 cells inducible for P301L mutant human Tau
T1 construct: HEK293 cells inducible for P301L mutant human Tau (isoform 2N4R) were established at Janssen; endogenous in cells; host or cells: HEK293 cells inducible for P301L mutant human Tau (2N4R)
T1 sequence (O60502 1-916): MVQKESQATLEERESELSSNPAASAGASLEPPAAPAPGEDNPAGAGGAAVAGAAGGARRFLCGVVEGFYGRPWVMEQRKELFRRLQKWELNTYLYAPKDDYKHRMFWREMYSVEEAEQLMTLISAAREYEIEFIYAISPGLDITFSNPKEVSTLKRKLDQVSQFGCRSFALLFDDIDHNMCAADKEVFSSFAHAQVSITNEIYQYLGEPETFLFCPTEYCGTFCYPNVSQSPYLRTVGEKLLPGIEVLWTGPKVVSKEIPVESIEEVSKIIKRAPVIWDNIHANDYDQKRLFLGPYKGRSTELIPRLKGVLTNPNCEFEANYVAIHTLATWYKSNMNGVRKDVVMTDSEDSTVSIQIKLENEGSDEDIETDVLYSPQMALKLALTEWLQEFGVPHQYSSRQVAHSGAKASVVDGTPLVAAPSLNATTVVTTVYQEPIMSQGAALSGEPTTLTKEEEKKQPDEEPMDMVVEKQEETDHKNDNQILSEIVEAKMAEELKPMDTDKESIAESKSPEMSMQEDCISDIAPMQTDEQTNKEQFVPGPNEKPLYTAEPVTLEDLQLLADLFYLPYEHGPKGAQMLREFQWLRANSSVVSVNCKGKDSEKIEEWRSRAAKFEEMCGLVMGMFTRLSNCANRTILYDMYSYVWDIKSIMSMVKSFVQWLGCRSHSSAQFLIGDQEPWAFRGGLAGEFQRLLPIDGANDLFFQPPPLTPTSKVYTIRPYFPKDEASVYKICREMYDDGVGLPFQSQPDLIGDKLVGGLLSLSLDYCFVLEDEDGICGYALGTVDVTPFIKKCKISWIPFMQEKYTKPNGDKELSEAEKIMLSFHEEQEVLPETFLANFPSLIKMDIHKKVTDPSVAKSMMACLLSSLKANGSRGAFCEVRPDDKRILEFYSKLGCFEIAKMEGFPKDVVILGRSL
Method: HEK293 cells inducible for P301L mutant human Tau (isoform 2N4R) were established at Janssen. Thiamet-G was used for both plate validation (high control) and as reference compound (reference EC50 assay validation). OGA inhibition is evaluated through the immunocytochemical (ICC) detection of O-GlcNAcylated proteins by the use of a monoclonal antibody (CTD110.6; Cell Signaling, #9875) detecting 0-GlcNAcylated residues as previously described (Dorfmueller et al. 2010 Chemistry & biology, 17:1250). Inhibition of OGA will result in an increase of O-GlcNAcylated protein levels resulting in an increased signal in the experiment. Cell nuclei are stained with Hoechst to give a cell culture quality control and a rough estimate of immediate compounds toxicity, if any. ICC pictures are imaged with a Perkin Elmer Opera Phenix plate microscope and quantified with the provided software Perkin Elmer Harmony 4.1.
Cells were propagated in DMEM high Glucose (Sigma, #D5796) following standard procedures. 2 days before the cell assay cells are split, counted and seeded in Poly-D-Lysine (PDL) coated 96-wells (Greiner, #655946) plate at a cell density of 12,000 cells per cm^2 (4,000 cells per well) in 100 μl of Assay Medium (Low Glucose medium is used to reduce basal levels of GlcNAcylation) (Park et al. 2014 The Journal of biological chemistry 289:13519). At the day of compound test medium from assay plates was removed and replenished with 90 μl of fresh Assay Medium. 10 μl of compounds at a 10fold final concentration were added to the wells. Plates were centrifuged shortly before incubation in the cell incubator for 6 hours. DMSO concentration was set to 0.2%. Medium is discarded by applying vacuum. For staining of cells medium was removed and cells washed once with 100 μl D-PBS (Sigma, #D8537). From next step onwards unless other stated assay volume was always 50 μl and incubation was performed without agitation and at room temperature. Cells were fixed in 50 μl of a 4% paraformaldehyde (PFA, Alpha aesar, #043368) PBS solution for 15 minutes at room temperature. […] Before analysis samples were washed 2 times manually for 5 minutes in ICC base buffer.
Imaging is performed using Perkin Elmer Phenix Opera using a water 20× objective and recording 9 fields per well. Intensity readout at 488 nm is used as a measure of O-GlcNAcylation level of total proteins in wells. To assess potential toxicity of compounds nuclei were counted using the Hoechst staining. IC50-values are calculated using parametric non-linear regression model fitting. As a maximum inhibition Thiamet G at a 200 uM concentration is present on each plate. In addition, a concentration response of Thiamet G is calculated on each plate.

[1] = molecular target: T2, recombinant human Meningioma Expressed Antigen 5 (MGEA5), also referred to as O-GlcNAcase (OGA) (Homo sapiens, UniProt O60502); experiment: OGA biochemical assay (inhibition of FM-GlcNAc hydrolysis, fluorescence); conditions: FM-GlcNAc substrate; for IC50: 6 h at room temperature, read-out: Enzymatic hOGA, pIC50 (converted); for Enzymatic Emax (%) / Emax: maximal effect; for Emax: read-out: Enzymatic Emax (%)
T2 construct: Full length OGA enzyme was purchased at OriGene (cat #TP322411); purchased OriGene TP322411
T2 sequence (O60502 1-916): T1 sequence (O60502 1-916)
Method in brief: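 Full-length OGA (2 nM) pre-incubated 60 min at room temperature with compound, then FM-GlcNAc (100 uM final) hydrolysed 6 h at room temperature in 200 mM citrate/phosphate pH 7.2 with 0.005% Tween-20. Stopped with carbonate pH 11.0; fluorescein read at ex 485/em 538 nm. IC50 and Hill coefficient from curve fit between no-inhibitor and saturating-standard controls.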

[2] = HEK293 cells inducible for P301L mutant human Tau, 6 hours incubation
[3] = HEK293 cells inducible for P301L mutant human Tau

SMILES | EC50 (OGA; [2]) [nM] | Cellular Emax (%) (OGA; [3]) | IC50 [1] [nM] | Enzymatic Emax (%) [1] [%] | Cellular hOGA; pEC50 (OGA; [2]) | Emax [1] [%] | Emax (OGA) [%]
Cc1cc(O[C@@H]2CCN(C(C)c3ccc4sc(C)nc4n3)C2)cc(C)n1 (single isomer, unassigned) [Compound 73] | > 1000 | −9 | > 10000 | 8 | – | – | –
Cc1cc(O[C@@H]2CCN(C(C)c3ccc4sc(C)nc4n3)C2)cc(C)n1 (single isomer, unassigned) [Compound 74] | – | −4 | 158 | 97 | <6 | – | –
Cc1cc(C2CCCN(C(C)c3ccc4sc(C)nc4n3)C2)c(F)c(C)n1 (single isomer, unassigned) [Compound 77] | > 1000 | −10 | 2510 | – | – | 75 | –
Cc1cc(C2CCCN(C(C)c3ccc4sc(C)nc4n3)C2)c(F)c(C)n1 (single isomer, unassigned) [Compound 78] | 79.4 | 80 | 10 | 93 | – | – | –
Cc1cc([C@H]2CCCN(C(C)c3nc4nc(C)sc4cc3F)C2)cc(C)n1 (single isomer, unassigned) [Compound 85] | 10 | – | 3.98 | – | – | 100 | 75
Cc1cc([C@H]2CCCN([C@H](C)c3nc4nc(C)sc4cc3F)C2)cc(C)n1 (single isomer, unassigned) [Compound 86] | > 1000 | – | 1580 | – | – | 95 | 12
Cc1cc([C@H]2CCCN([C@@H](C)c3nc4nc(C)sc4cc3F)C2)cc(C)n1 (single isomer, unassigned) [Compound 87] | 3.16 | – | 2.51 | – | – | 99 | 79
Cc1cc(C[C@@H]2CCN(C(C)c3nc4nc(C)sc4cc3F)C2)cc(C)n1 (single isomer, unassigned) [Compound 93] | 39.8 | 91 | 3.16 | – | – | 92 | –
Cc1cc(C[C@@H]2CCN(C(C)c3nc4nc(C)sc4cc3F)C2)cc(C)n1 (single isomer, unassigned) [Compound 94] | > 1000 | 2 | 1580 | 76 | – | – | –
COc1cc(C[C@@H]2CCN(C(C)c3ccc4sc(C)nc4n3)C2)cc(C)n1 (single isomer, unassigned) [Compound 97] | > 1000 | – | 6310 | – | – | 56 | -2
Cc1cc(CO[C@H]2CCCN(C(C)c3cc4nc(C)sc4cc3F)C2)cc(C)n1 (single isomer, unassigned) [Compound 100] | > 1000 | −6 | 1260 | – | – | 92 | –
Cc1cc(CO[C@H]2CCCN(C(C)c3cc4nc(C)sc4cc3F)C2)cc(C)n1 (single isomer, unassigned) [Compound 101] | 50.1 | 73 | 3.98 | 98 | – | – | –
Cc1cc(NCC2CCCN(C(C)c3ccc4sc(C)nc4n3)C2)cc(C)n1 (single isomer, unassigned) [Compound 106] | 6.31 | – | 5.01 | – | – | 99 | 92
Cc1cc(C[C@H]2CCCN(Cc3ccc4[nH]c(C)nc4n3)C2)cc(C)n1 [Compound 9] | 631 | – | 200 | – | – | 96 | 59
Cc1cc(C[C@H]2CCCN([C@H](C)c3ccc4oc(C)nc4n3)C2)cc(C(F)(F)F)n1 [Compound 24a] | 39.8 | – | 7.94 | – | – | 99 | 81
Cc1cc(C[C@H]2CCCN([C@H](C)c3ccc4oc(C)nc4n3)C2)cc(OC(F)(F)F)n1 [Compound 25a] | 50.1 | – | 3.98 | – | – | 101 | 85
Cc1cc(C[C@H]2CCCN(Cc3cnc4nc(C)oc4c3)C2)cc(C)n1 [Compound 37] | > 1000 | – | 7940 | – | – | 55 | 2
Cc1cc(OC2CCCN(C(C)c3ccc4sc(C)nc4n3)C2)cc(C)n1 (stereo not drawn) [Compound 40] | 794 | – | 12.6 | – | – | 99 | 49
Cc1cc(OC[C@H]2CCCN([C@@H](C)c3ccc4sc(C)nc4n3)C2)nc(C)n1 [Compound 49a] | > 1000 | – | 2000 | – | – | 84 | -2
Cc1cc(OC[C@H]2CCCN([C@H](C)c3ccc4sc(C)nc4n3)C2)nc(C)n1 [Compound 49b] | 31.6 | – | 6.31 | – | – | 99 | 70
Cc1cc(C[C@@H]2CCN([C@H](C)c3cc4nc(C)sc4cc3F)C2)cc(C)n1 [Compound 59] | > 1000 | – | 200 | – | – | 98 | 11
Cc1cc(C[C@@H]2CCN([C@@H](C)c3cc4nc(C)sc4cc3F)C2)cc(C)n1 [Compound 60] | 63.1 | – | 2 | – | – | 99 | 66
Cc1cc(C[C@H]2CCN(C(C)c3cnc4nc(C)oc4c3)C2)cc(C)n1 (stereo partly drawn) [Compound 63] | 158 | – | 100 | – | – | 103 | 77
Cc1cc(CO[C@H]2CCCN(C(C)c3ccc4sc(C)nc4n3)C2)cc(C)n1 (stereo partly drawn) [Compound 66] | 501 | – | 39.8 | – | – | 100 | 55
Cc1cc(CO[C@@H]2CCCN(C(C)c3ccc4sc(C)nc4n3)C2)cc(C)n1 (stereo partly drawn) [Compound 68] | > 1000 | – | 126 | – | – | 98 | 27
Cc1cc(C)nc(CO[C@@H]2CCN(C(C)c3ccc4sc(C)nc4n3)C2)c1 (stereo partly drawn) [Compound 80] | > 1000 | – | 2000 | – | – | 85 | 5
Cc1cc([C@H]2CCCN(C(C)c3nc4nc(C)[nH]c4cc3F)C2)cc(C)n1 (stereo partly drawn) [Compound 82] | > 1000 | – | 126 | – | – | 97 | 39
